Measured values taken from US9700516B2, “Compositions and methods for reducing overdose” (priority 2014, dated 2017).

Test: Effect of alkalinizing agents on the pH of a solution of 0.1 N HCl with a starting pH of 2.0
Type: physicochemical
Conditions: 930 mg in 200 ml
Experimental: Various alkalinizing agents were added to a solution of 0.1 N HCl with a starting pH of 2.0 and the pH of the solution was tested at different time points.

Measured: pH

O=C([O-])CC(O)(CC(=O)[O-])C(=O)[O-].[Na+].[Na+].[Na+] [Sodium Citrate, sodium citrate]
5.53: 10 min | 20 min | 30 min | 40 min | 50 min | 60 min
